Assay results: patent publication US8580965B2, “Substituted sulfonamide compounds” (Gruenenthal GmbH, priority 2006, dated 2013)

What was measured:
[1] = target: T1, human B1R receptor (bradykinin 1 receptor) (Homo sapiens, UniProt P46663); assay: FLIPR Ca2+ assay (Fluo-4) on CHO K1 cells stably transfected with the human B1R gene; % activation and % inhibition at 10 μM; type: cell-based; details: CHO K1 hB1R cells, Ca2+ inflow after 0.5 nM Lys-Des-Arg9-bradykinin; for inhibition at 10 µM: CHO-K1, test substance 10 μM, read-out: B1R antagonism, human [10 μM] % inhibition
T1 construct: host or cells: CHO K1 cells (hB1R cells)
T1 sequence (P46663 1-353): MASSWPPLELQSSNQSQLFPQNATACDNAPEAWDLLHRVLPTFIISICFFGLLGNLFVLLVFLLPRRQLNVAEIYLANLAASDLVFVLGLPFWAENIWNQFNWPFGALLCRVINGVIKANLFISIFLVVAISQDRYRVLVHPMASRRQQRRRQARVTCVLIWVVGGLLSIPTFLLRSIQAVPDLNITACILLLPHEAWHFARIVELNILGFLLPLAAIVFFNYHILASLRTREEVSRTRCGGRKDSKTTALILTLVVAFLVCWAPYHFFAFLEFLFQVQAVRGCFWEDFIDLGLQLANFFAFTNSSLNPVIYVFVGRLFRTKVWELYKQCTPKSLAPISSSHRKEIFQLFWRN
How it was run: (§1)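 CHO K1 cells stably expressing human or rat B1R, Fluo-4 loaded, read by FLIPR (peak fluorescence). Compound at 10 µM first gives % activation versus agonist; after 10 min, agonist (human: 0.5 nM Lys-Des-Arg9-bradykinin; rat: 100 nM Des-Arg9-bradykinin) gives % inhibition relative to maximal inhibition.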

[2] = target: T2, B1R receptor of the rat (bradykinin 1 receptor) (Rattus norvegicus, UniProt P97583); assay: FLIPR Ca2+ assay (Fluo-4) on CHO K1 cells stably transfected with the B1R gene of the rat; % activation and % inhibition at 10 μM; type: cell-based; details: CHO K1 rB1R cells, Ca2+ inflow after 100 nM Des-Arg9-bradykinin; for inhibition at 10 µM: CHO-K1, test substance 10 μM, read-out: B1R antagonism, rat [10 μM] % inhibition
T2 construct: host or cells: CHO K1 cells (rB1R cells)
T2 sequence (P97583 1-337): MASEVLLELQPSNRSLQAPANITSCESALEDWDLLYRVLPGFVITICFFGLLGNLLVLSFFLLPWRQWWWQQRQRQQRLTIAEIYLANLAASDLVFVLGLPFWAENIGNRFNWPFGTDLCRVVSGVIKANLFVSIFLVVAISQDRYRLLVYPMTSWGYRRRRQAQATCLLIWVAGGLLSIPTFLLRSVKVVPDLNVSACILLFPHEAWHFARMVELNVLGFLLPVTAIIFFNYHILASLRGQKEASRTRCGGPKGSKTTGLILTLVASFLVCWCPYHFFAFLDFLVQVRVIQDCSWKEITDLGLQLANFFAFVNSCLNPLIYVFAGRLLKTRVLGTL
How it was run: as §1

Molecule	inhibition at 10 µM [1] [%]	inhibition at 10 µM [2] [%]	B1R antagonism, human [10 μM] % inhibition ([1]; test substance 10 μM) [%]	B1R antagonism, rat [10 μM] % inhibition ([2]; test substance 10 μM) [%]
Cc1cc(S(=O)(=O)N2CCCCC2CCC(=O)N2CCC(O)(c3ccccn3)CC2)c(C)cc1Cl (stereo not shown) [Example 119, 3-(1-(4-chloro-2,5-dimethylphenylsulfonyl)piperidin-2-yl)-1-(4-hydroxy-4-(pyridin-2-yl)piperidin-1-yl)propan-1-one]	82.6	22.4		
COc1cc(C)c(S(=O)(=O)N(C)CCOCCC(=O)N2CCC(O)(c3ccc(Cl)c(C(F)(F)F)c3)CC2)c(C)c1 [Example 278, N-(2-(3-(4-(4-chloro-3-(trifluoromethyl)phenyl)-4-hydroxypiperidin-1-yl)-3-oxopropoxy)ethyl)-4-methoxy-N,2,6-trimethylphenylsulfonamide]	96.4	99.9		
COc1cc(C)c(S(=O)(=O)N(C)CCOCC(=O)N2CCC(O)(c3cccs3)CC2)c(C)c1 [Example 86, N-{2-[2-(4-hydroxy-4-thiophen-2-yl-piperidin-1-yl)-2-oxo-ethoxy]-ethyl}-4-methoxy-2,6,N-trimethyl-phenylsulfonamide]	106	102		
COc1cc(C)c(S(=O)(=O)N2CCCC(COCC(=O)N3CCC(O)(Cc4ccccc4)CC3)C2)c(C)c1 (stereo not shown) [Example 252, 1-(4-benzyl-4-hydroxypiperidin-1-yl)-2-((1-(4-methoxy-2,6-dimethylphenylsulfonyl)piperidin-3-yl)methoxy)ethanone]	32.7	100		
2-((2-(3,4-dichlorophenylsulfonyl)-1,2,3,4-tetrahydroisoquinolin-3-yl)methoxy)-1-(4-hydroxy-4-phenylpiperidin-1-yl)ethanone [Example 76]			9.96	43.59
Cc1cc(C)c(S(=O)(=O)N2Cc3ccccc3CC2COCC(=O)N2CCC(O)(c3ccccc3)CC2)c(C)c1 (stereo not shown) [Example 101, 1-(4-hydroxy-4-phenylpiperidin-1-yl)-2-((2-(mesitylsulfonyl)-1,2,3,4-tetrahydroisoquinolin-3-yl)methoxy)ethanone]	102	85.4		
COc1ccc(S(=O)(=O)N2CCCC2COCC(=O)N2CCC(O)(c3ccccn3)CC2)cc1 (stereo not shown) [Example 40, 1-(4′-hydroxy-3′,4′,5′,6′-tetrahydro-2′H-[2,4′]bipyridinyl-1′-yl)-2-[1-(4-methoxy-phenylsulfonyl)-pyrrolidin-2-ylmethoxy]-ethanone]	1.84	61.3		
O=C(COCC1CCCN1S(=O)(=O)c1c(Cl)cc(C(F)(F)F)cc1Cl)N1CCC(O)(c2cccc(C(F)(F)F)c2)CC1 (stereo not shown) [Example 170, 2-((1-(2,6-dichloro-4-(trifluoromethyl)phenylsulfonyl)pyrrolidin-2-yl)methoxy)-1-(4-hydroxy-4-(3-(trifluoromethyl)phenyl)piperidin-1-yl)ethanone]	25.7	103		
COc1cc(C)c(S(=O)(=O)N2Cc3ccccc3CC2COCC(=O)N2CCC(O)(Cc3ccccc3)CC2)c(C)c1C (stereo not shown) [Example 232, 1-(4-benzyl-4-hydroxypiperidin-1-yl)-2-((2-(4-methoxy-2,3,6-trimethylphenylsulfonyl)-1,2,3,4-tetrahydroisoquinolin-3-yl)methoxy)ethanone]	54.5	63.1		
O=C(COCC1CCCCN1S(=O)(=O)c1ccccc1C(F)(F)F)N1CCC(O)(c2cccnc2)CC1 (stereo not shown) [Example 172, 1-(4-hydroxy-4-(pyridin-3-yl)piperidin-1-yl)-2-((1-(2-(trifluoromethyl)phenylsulfonyl)piperidin-2-yl)methoxy)ethanone]	103	105		
COc1cc(C)c(S(=O)(=O)N(C)CCOCCC(=O)N2CCC(O)(Cc3ccccc3)CC2)c(C)c1 [Example 277, N-(2-(3-(4-benzyl-4-hydroxypiperidin-1-yl)-3-oxopropoxy)ethyl)-4-methoxy-N,2,6-trimethylphenylsulfonamide]	86.8	88.2		
COc1cc(C)c(S(=O)(=O)N2Cc3ccccc3CC2COCC(=O)N2CCC(O)(c3cccnc3)CC2)c(C)c1C (stereo not shown) [Example 195, 1-(4-hydroxy-4-(pyridin-3-yl)piperidin-1-yl)-2-((2-(4-methoxy-2,3,6-trimethylphenylsulfonyl)-1,2,3,4-tetrahydroisoquinolin-3-yl)methoxy)ethanone]	97.8	93.5		
O=C(COCC1Cc2ccccc2CN1S(=O)(=O)c1ccc(Cl)cc1Cl)N1CCC(O)(Cc2ccccc2)CC1 (stereo not shown) [Example 81, 1-(4-benzyl-4-hydroxy-piperidin-1-yl)-2-[2-(2,4-dichloro-phenylsulfonyl)-1,2,3,4-tetrahydro-isoquinolin-3-ylmethoxy]-ethanone]	32.9	62.8		
O=C(COCC1CCCCN1S(=O)(=O)c1c(Cl)cccc1Cl)N1CCC(O)(c2cccc(C(F)(F)F)c2)CC1 (stereo not shown) [Example 235, 2-((1-(2,6-dichlorophenylsulfonyl)piperidin-2-yl)methoxy)-1-(4-hydroxy-4-(3-(trifluoromethyl)phenyl)piperidin-1-yl)ethanone]	103	99.9		
Cc1ccc(F)cc1S(=O)(=O)N(C)CCOCC(=O)N1CCC(O)(Cc2ccccc2)CC1 [Example 62, N-{2-[2-(4-benzyl-4-hydroxy-piperidin-1-yl)-2-oxo-ethoxy]-ethyl}-5-fluoro-2,N-dimethyl-phenylsulfonamide]	7.47	22.9		
COc1cc(C)c(S(=O)(=O)N2CCCCC2COCC(=O)N2CCC(O)(c3cccnc3)CC2)c(C)c1 (stereo not shown) [Example 127, 1-(4-hydroxy-4-(pyridin-3-yl)piperidin-1-yl)-2-((1-(4-methoxy-2,6-dimethylphenylsulfonyl)piperidin-2-yl)methoxy)ethanone]	104	101		
CN(CCCC(=O)N1CCC(O)(c2cccnc2)CC1)S(=O)(=O)c1ccc2ccccc2c1 [Example 115, N-(4-(4-hydroxy-4-(pyridin-3-yl)piperidin-1-yl)-4-oxobutyl)-N-methylnaphthalene-2-sulfonamide]	55.2	44.3		
CN(CCOCC(=O)N1CCC(O)(c2cccc(C(F)(F)F)c2)CC1)S(=O)(=O)c1cc(Cl)sc1Cl [Example 262, 2,5-dichloro-N-(2-(2-(4-hydroxy-4-(3-(trifluoromethyl)phenyl)piperidin-1-yl)-2-oxoethoxy)ethyl)-N-methylthiophene-3-sulfonamide]	73.6	94.2		
COc1cc(C)cc(C)c1S(=O)(=O)N1CCC(OCC(=O)N2CCC(O)(c3ccc(Br)cc3)CC2)C1 (stereo not shown) [Example 264, 1-(4-(4-bromophenyl)-4-hydroxypiperidin-1-yl)-2-(1-(2-methoxy-4,6-dimethylphenylsulfonyl)pyrrolidin-3-yloxy)ethanone]	64.5	4.5		
O=C(COC1CCN(S(=O)(=O)c2ccc(Cl)cc2Cl)C1)N1CCC(O)(c2ccccn2)CC1 (stereo not shown) [Example 17, 2-[1-(2,4-dichloro-phenylsulfonyl)-pyrrolidin-3-yloxy]-1-(4′-hydroxy-3′,4′,5′,6′-tetrahydro-2′H-[2,4′]bipyridinyl-1′-yl)-ethanone]	28	1.79		
COc1cc(C)c(S(=O)(=O)N2CCCC(COCC(=O)N3CCC(O)(c4ccc(Cl)cc4)CC3)C2)c(C)c1 (stereo not shown) [Example 251, 1-(4-(4-chlorophenyl)-4-hydroxypiperidin-1-yl)-2-((1-(4-methoxy-2,6-dimethylphenylsulfonyl)piperidin-3-yl)methoxy)ethanone]	47.8	92.9		
Cc1cc(S(=O)(=O)N2CCCCC2COCC(=O)N2CCC(O)(Cc3ccccc3)CC2)c(C)cc1Cl (stereo not shown) [Example 159, 1-(4-benzyl-4-hydroxypiperidin-1-yl)-2-((1-(4-chloro-2,5-dimethylphenylsulfonyl)piperidin-2-yl)methoxy)ethanone]	38.5	97		
O=C(COCC1CCCCN1S(=O)(=O)c1c(Cl)cc(C(F)(F)F)cc1Cl)N1CCC(O)(c2ccc(Cl)c(C(F)(F)F)c2)CC1 (stereo not shown) [Example 165, 1-(4-(4-chloro-3-(trifluoromethyl)phenyl)-4-hydroxypiperidin-1-yl)-2-((1-(2,6-dichloro-4-(trifluoromethyl)phenylsulfonyl)piperidin-2-yl)methoxy)ethanone]	2.63	104		
